In patent publication US11377427B2, “Triazoles for regulating intracellular calcium homeostasis” (UNIVERSIDAD DEL PAIS VASCO, priority 2016, dated 2022):

Key:
mdx mice [1] = test: Grip strength of dystrophic mdx mice; format: in vivo, mouse; conditions: 0.25 mg/mL in drinking water, one-month old mdx mice
Procedure: One-month old male dystrophic mdx mice supplied by Jackson Laboratory (https://www.jax.org/strain/001801) were used. The biological assays for measuring the effect of the Ahulken (AHK) compounds on muscle function were performed with one-month old mice, whereas the in vivo assays for determining the effect on the heart and CNS were performed with four-month old mice. The one-month old mice were treated with compound AHK1 or compound AHK2 for 5 weeks, where said compounds were administered in drinking water at a concentration of 0.25 mg/mL. The muscle strength of the front paws was measured every week using a grip strength meter and the obtained value was normalized by the body weight of the animal. To that end, the indications described in the TREAT-NMD Neuromuscular Network protocol (http://www.treat-nmd.eu/downloads/file/sops/dmd/MDX/DMD_M.2.2.001.pdf) were followed.

[2] = test system: human control myotubes LHCN-M2; test: In vitro toxicity in human myotubes, CytoTox 96 colorimetric assay; format: cell-based; conditions: concentrations between 10 nM and 2 mM; 24 hours of incubation; FIG. 1
Procedure: These assays were carried out in human control myotubes LHCN-M2 after 14 days in differentiation medium. To determine the toxicity of the different analyzed compounds, particularly AHK1 and AHK2 according to the invention, these compounds were added to the culture medium for 24 hours at 37° C. at different concentrations (0-2 mM). For comparison purposes, the same assay was performed by adding reference compound S-107. Cell viability was determined by means of Cytotox 96 (Promega) colorimetric assay following instructions in the manual.

[3] = test system: tibialis anterior muscle of mdx mice; test: Gene expression pattern of tibialis anterior muscle of mdx mice (RT Profiler PCR Array); format: in vivo, mouse
Procedure: In turn, the biochemical analysis of the tibialis anterior muscle was performed by means of RNA extraction and expression pattern analysis in control mice, mdx mice and mice subjected to different treatments. To that end, the […] skeletal muscle, myogenesis and myopathy RT Profiler PCR Array (PAHS-099Z, QIAGEN) was used, using cDNA mixtures of at least 3 mice per group. The expression profile of 84 genes involved in physiopathological mechanisms of the skeletal muscle was thus analyzed. The experiments were conducted in 7300 Real-Time PCR equipment (Applied Biosystems) and the results obtained were analyzed using QIAGEN online software (http://www.sabiosciences.com/dataanalysis.php).

[4] = test system: fibers isolated from mouse flexor digitorum brevis muscle (dystrophic MDX fibers); test: Baseline intracellular calcium levels in mouse muscle fibers (Fura 2-AM); format: cell-based; conditions: 150 nM, overnight treatment; FIG. 2
Procedure: Fibers isolated from mouse flexor digitorum brevis muscle were cultured overnight in the presence or absence of compounds AHK1 and AHK2 at a concentration of 150 nM. Baseline intracellular calcium levels were evaluated by means of incubating the fibers with Fura 2-AM ratiometric fluorochrome (4 μM) and pluronic acid (0.02%) for 30 minutes at 37° C., in the culture medium. The fibers were viewed with a high-resolution digital camera and intracellular [Ca^2+] was estimated by means of a 340 nm/380 nm excitation ratio.

mdx mice [5] = test: Muscle degeneration/regeneration: percentage of central nuclei in muscle cryosections of mdx mice; format: in vivo, mouse; conditions: 5-week treatment of mdx mice; 0.25 mg/mL in drinking water; FIG. 5
Procedure: After concluding the 5-week treatment, the tibialis anterior muscle was obtained and processed for subsequent biochemical and immunohistological analysis to determine the degree of muscle damage. Cell-death derived regeneration was determined in muscle cryosections by means of quantifying the percentage of central nuclei using standard immunofluorescence techniques for detecting collagen IV and cell nuclei.

[6] = biological target: T1, RyR1-calstabin1 interaction (Homo sapiens, UniProt P21817+P62942); test: RyR1-calstabin1 interaction by in situ PLA in human myotubes under SIN1 nitro-oxidative stress; format: cell-based; conditions: pre-treated 12 hours at 150 nM; SIN1 5 mM 30 minutes; FIG. 3
T1 construct: endogenous in cells; host or cells: LHCN-M2 human myotubes (differentiated for 9 days)
Procedure: This assay was carried out in human control myotubes LHCN-M2 after 9 days in differentiation medium. Said myotubes were pre-treated for 12 hours with compounds AHK1 and AHK2 at a concentration of 150 nM. After treatment, the myotubes were subjected to peroxynitrite-induced nitro-oxidative stress by means of the addition of SIN1 (5 mM) for 30 minutes. RyR1-calstabin colocalization was analyzed by means of the in situ proximity ligation technique (in situ PLA) for which Sigma's Duolink II Network Fluorescence Kit and RyR1- and calstabin 1-specific antibodies were used. This technique allows detecting the exact location of two antigens located at a distance less than 40 nm from one another. To determine RyR1-calstabin-1 colocalization, 3 photographs were quantified for each condition with about 9 myotubes per field, using Image J computer software (http://rsb.info.nih.gov/ij/download.html). The colocalization area in each image was normalized to the myosin expression area, which was determined by means of immunofluorescence with a fluorescein-conjugated specific antibody.

T1 sequence (P21817 whole entry): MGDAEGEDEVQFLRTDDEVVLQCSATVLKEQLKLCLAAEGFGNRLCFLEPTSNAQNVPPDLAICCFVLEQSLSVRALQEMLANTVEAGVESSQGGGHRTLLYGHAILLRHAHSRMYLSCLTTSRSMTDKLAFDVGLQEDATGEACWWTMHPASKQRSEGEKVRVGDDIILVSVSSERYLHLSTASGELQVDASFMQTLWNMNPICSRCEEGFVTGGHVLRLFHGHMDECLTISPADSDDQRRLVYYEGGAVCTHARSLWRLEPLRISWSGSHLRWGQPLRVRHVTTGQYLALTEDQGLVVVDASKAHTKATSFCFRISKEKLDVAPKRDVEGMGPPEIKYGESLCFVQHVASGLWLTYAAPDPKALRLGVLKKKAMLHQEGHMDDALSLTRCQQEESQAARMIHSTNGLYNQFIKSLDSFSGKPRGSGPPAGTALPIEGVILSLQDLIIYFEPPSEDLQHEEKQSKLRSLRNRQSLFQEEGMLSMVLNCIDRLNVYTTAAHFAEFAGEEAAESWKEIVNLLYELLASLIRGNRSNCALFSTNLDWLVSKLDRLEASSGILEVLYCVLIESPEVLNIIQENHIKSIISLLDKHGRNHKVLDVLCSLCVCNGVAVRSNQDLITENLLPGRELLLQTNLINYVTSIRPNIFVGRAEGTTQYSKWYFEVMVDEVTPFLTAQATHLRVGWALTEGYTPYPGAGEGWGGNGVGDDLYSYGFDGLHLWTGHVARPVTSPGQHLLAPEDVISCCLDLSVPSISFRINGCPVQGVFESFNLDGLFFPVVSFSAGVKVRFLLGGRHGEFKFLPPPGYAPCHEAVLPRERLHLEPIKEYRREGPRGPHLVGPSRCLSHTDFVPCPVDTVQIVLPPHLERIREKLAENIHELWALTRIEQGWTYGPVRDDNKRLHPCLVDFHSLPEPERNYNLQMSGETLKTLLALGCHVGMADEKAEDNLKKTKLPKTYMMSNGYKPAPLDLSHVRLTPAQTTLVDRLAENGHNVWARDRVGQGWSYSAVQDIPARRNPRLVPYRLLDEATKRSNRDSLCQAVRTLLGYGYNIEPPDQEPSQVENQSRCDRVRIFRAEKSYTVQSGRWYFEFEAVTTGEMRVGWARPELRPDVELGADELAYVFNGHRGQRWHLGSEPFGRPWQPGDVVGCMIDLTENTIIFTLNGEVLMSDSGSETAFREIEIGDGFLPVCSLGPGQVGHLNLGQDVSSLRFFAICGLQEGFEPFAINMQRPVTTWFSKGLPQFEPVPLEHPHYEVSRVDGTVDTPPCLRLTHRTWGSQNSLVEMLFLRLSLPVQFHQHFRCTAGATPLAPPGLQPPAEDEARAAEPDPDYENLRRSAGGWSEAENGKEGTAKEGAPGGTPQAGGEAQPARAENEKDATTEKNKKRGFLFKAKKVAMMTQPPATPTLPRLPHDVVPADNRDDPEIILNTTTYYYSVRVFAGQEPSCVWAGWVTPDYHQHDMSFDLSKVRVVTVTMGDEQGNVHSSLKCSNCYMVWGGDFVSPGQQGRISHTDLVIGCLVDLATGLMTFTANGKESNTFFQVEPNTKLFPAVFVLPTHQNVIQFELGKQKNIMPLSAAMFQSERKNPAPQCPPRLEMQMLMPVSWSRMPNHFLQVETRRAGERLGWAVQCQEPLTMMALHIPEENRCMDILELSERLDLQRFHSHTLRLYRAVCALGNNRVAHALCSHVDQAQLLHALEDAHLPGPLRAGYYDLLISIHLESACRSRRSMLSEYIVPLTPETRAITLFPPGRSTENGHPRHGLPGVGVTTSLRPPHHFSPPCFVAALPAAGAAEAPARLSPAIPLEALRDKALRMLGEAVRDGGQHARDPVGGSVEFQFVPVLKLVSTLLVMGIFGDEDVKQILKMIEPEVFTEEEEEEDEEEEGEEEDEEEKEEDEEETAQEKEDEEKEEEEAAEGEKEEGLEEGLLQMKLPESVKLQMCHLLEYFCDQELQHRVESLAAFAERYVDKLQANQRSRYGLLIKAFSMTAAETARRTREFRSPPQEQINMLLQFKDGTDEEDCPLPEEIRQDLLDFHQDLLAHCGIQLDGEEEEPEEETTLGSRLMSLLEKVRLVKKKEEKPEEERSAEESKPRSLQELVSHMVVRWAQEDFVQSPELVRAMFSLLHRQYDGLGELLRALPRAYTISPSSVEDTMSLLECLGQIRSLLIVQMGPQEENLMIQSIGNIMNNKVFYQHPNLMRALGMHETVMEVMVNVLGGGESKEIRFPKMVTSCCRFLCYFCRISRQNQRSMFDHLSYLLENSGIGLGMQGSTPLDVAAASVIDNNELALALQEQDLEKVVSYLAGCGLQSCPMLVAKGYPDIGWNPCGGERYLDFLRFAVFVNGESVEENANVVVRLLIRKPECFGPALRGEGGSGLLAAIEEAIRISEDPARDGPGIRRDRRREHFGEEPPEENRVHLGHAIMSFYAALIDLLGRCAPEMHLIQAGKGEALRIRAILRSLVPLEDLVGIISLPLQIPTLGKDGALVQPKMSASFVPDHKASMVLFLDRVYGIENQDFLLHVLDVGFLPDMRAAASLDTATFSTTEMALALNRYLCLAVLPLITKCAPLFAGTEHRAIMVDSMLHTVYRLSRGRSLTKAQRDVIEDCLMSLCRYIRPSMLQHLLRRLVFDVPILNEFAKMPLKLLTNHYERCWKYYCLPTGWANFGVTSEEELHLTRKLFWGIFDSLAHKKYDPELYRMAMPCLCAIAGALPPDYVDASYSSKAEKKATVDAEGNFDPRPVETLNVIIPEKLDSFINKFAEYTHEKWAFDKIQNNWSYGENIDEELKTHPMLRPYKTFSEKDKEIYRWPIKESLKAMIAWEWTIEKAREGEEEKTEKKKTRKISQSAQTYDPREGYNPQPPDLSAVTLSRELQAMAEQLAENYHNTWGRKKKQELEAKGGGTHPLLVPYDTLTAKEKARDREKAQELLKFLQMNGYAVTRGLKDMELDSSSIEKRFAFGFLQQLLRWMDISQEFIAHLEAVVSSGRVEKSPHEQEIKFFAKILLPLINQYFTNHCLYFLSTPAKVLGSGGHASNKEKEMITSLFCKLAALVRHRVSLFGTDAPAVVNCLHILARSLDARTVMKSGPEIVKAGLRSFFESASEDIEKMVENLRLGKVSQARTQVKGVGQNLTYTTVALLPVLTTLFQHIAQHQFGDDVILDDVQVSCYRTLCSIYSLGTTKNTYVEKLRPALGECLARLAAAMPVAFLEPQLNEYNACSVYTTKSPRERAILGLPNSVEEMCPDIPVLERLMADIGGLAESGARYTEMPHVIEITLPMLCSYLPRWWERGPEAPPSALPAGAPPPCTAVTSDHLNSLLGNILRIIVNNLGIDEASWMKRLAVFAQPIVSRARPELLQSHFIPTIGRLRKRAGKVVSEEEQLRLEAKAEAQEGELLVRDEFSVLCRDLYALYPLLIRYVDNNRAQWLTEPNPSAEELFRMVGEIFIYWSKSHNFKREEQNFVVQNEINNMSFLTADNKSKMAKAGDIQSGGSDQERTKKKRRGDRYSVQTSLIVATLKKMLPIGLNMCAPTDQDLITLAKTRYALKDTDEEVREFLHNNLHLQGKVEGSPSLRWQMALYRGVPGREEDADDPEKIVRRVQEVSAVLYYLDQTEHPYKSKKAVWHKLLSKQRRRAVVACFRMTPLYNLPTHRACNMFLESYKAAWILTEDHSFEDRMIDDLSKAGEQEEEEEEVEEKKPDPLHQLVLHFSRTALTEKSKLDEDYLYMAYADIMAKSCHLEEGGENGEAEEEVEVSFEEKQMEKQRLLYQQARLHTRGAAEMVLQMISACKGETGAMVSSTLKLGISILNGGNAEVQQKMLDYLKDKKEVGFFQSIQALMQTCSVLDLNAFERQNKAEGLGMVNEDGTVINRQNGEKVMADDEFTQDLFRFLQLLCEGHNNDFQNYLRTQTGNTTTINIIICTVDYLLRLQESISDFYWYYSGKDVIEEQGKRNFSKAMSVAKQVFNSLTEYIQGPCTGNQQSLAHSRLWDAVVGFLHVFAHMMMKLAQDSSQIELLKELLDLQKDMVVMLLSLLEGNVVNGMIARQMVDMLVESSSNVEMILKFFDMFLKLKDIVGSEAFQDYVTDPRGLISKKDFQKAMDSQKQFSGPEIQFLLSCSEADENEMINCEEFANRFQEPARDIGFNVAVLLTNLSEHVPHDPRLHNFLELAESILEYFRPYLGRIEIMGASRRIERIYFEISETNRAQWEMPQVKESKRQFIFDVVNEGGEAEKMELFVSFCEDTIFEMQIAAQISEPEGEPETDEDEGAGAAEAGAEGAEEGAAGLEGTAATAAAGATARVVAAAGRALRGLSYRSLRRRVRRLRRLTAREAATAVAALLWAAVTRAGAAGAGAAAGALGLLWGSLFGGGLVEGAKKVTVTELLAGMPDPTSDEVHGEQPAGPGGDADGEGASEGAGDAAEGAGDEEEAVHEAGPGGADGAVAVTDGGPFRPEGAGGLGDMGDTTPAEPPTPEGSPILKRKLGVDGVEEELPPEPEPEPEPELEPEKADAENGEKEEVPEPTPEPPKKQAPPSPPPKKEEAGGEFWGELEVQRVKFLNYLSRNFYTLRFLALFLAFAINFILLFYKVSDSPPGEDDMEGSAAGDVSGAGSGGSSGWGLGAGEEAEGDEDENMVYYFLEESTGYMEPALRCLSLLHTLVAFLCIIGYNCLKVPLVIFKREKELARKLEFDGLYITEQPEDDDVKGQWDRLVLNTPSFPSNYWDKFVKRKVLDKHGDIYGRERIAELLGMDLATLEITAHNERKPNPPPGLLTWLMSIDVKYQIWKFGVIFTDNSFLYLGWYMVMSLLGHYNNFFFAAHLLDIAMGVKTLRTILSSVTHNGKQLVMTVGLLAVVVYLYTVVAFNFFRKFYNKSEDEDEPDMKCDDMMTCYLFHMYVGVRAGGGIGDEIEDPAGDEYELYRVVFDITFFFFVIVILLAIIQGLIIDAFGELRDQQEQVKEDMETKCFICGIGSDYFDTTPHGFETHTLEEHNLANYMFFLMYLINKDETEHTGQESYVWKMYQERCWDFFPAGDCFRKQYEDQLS
T1 sequence (P62942 2-108 limits assumed): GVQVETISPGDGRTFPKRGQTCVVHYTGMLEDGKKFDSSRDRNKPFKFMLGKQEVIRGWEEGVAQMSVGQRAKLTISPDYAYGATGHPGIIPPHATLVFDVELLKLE

## COc1cccc(SCc2cn(CC(=O)O)nn2)c1 [AHK1, 1-carboxymethyl-4-[3-(methoxy)phenylthiomethyl]-1H-1,2,3-triazole]
Mdx mice [1]; after 2 weeks of treatment
  grip strength compared to untreated littermates: increased significantly
Mdx mice [1]; after 5 weeks of treatment, FIG. 4
  increase of muscle strength: 20%
[2]
  in vitro acute toxicity against human myotubes: do not show in vitro acute toxicity
[3]; gene Akt1, MDX + AHK1, 5 weeks, tibialis anterior, untreated MDX 2.63
  Ratio of change vs. control, Akt1: 1.42
[3]; gene Bcl2, MDX + AHK1, 5 weeks, tibialis anterior, untreated MDX 1.94
  Ratio of change vs. control, Bcl2: 1.05
[3]; gene Bmp4, MDX + AHK1, 5 weeks, tibialis anterior, untreated MDX 1.93
  Ratio of change vs. control, Bmp4: 2.08
[3]; gene Capn2, MDX + AHK1, 5 weeks, tibialis anterior, untreated MDX 2.90
  Ratio of change vs. control, Capn2: 1.75
[3]; gene Casp3, MDX + AHK1, 5 weeks, tibialis anterior, untreated MDX 10.28
  Ratio of change vs. control, Casp3: 5.27
[3]; gene Cast, MDX + AHK1, 5 weeks, tibialis anterior, untreated MDX 1.86
  Ratio of change vs. control, Cast: 1.49
[3]; gene Cav3, MDX + AHK1, 5 weeks, tibialis anterior, untreated MDX 3.28
  Ratio of change vs. control, Cav3: 1.68
[3]; gene Cryab, MDX + AHK1, 5 weeks, tibialis anterior, untreated MDX 3.08
  Ratio of change vs. control, Cryab: 1.50
[3]; gene Ctnnb1, MDX + AHK1, 5 weeks, tibialis anterior, untreated MDX 1.79
  Ratio of change vs. control, Ctnnb1: 1.27
[3]; gene Dag1, MDX + AHK1, 5 weeks, tibialis anterior, untreated MDX 2.27
  Ratio of change vs. control, Dag1: 1.23
[3]; gene Des, MDX + AHK1, 5 weeks, tibialis anterior, untreated MDX 2.14
  Ratio of change vs. control, Des: 1.53
[3]; gene Dysf, MDX + AHK1, 5 weeks, tibialis anterior, untreated MDX 2.15
  Ratio of change vs. control, Dysf: 1.28
[3]; gene Foxo3, MDX + AHK1, 5 weeks, tibialis anterior, untreated MDX 1.76
  Ratio of change vs. control, Foxo3: 1.14
[3]; gene Igf1, MDX + AHK1, 5 weeks, tibialis anterior, untreated MDX 2.87
  Ratio of change vs. control, Igf1: 2.07
[3]; gene Igf2, MDX + AHK1, 5 weeks, tibialis anterior, untreated MDX 22.31
  Ratio of change vs. control, Igf2: 9.78
[3]; gene Igfbp3, MDX + AHK1, 5 weeks, tibialis anterior, untreated MDX 1.77
  Ratio of change vs. control, Igfbp3: 1.34
[3]; gene Igfbp5, MDX + AHK1, 5 weeks, tibialis anterior, untreated MDX 2.52
  Ratio of change vs. control, Igfbp5: 1.43
[3]; gene Ikbkb, MDX + AHK1, 5 weeks, tibialis anterior, untreated MDX 2.72
  Ratio of change vs. control, Ikbkb: 1.62
[3]; gene Il1b, MDX + AHK1, 5 weeks, tibialis anterior, untreated MDX 17.77
  Ratio of change vs. control, Il1b: 2.82
[3]; gene Il6, MDX + AHK1, 5 weeks, tibialis anterior, untreated MDX 32.72
  Ratio of change vs. control, Il6: 9.76
[3]; gene Lmna, MDX + AHK1, 5 weeks, tibialis anterior, untreated MDX 5.29
  Ratio of change vs. control, Lmna: 2.52
[3]; gene Mapk3, MDX + AHK1, 5 weeks, tibialis anterior, untreated MDX 2.61
  Ratio of change vs. control, Mapk3: 1.69
[3]; gene Mmp9, MDX + AHK1, 5 weeks, tibialis anterior, untreated MDX 4.51
  Ratio of change vs. control, Mmp9: 2.01
[3]; gene Musk, MDX + AHK1, 5 weeks, tibialis anterior, untreated MDX 3.51
  Ratio of change vs. control, Musk: 2.00
[3]; gene Myf5, MDX + AHK1, 5 weeks, tibialis anterior, untreated MDX 3.40
  Ratio of change vs. control, Myf5: 2.13
[3]; gene Myod1, MDX + AHK1, 5 weeks, tibialis anterior, untreated MDX 4.27
  Ratio of change vs. control, Myod1: 1.28
[3]; gene Myog, MDX + AHK1, 5 weeks, tibialis anterior, untreated MDX 17.36
  Ratio of change vs. control, Myog: 3.24
[3]; gene Nfkb1, MDX + AHK1, 5 weeks, tibialis anterior, untreated MDX 2.45
  Ratio of change vs. control, Nfkb1: 1.67
[3]; gene Pax3, MDX + AHK1, 5 weeks, tibialis anterior, untreated MDX 2.16
  Ratio of change vs. control, Pax3: 2.48
[3]; gene Pax7, MDX + AHK1, 5 weeks, tibialis anterior, untreated MDX 3.82
  Ratio of change vs. control, Pax7: 2.55
[3]; gene Ppargc1b, MDX + AHK1, 5 weeks, tibialis anterior, untreated MDX 1.77
  Ratio of change vs. control, Ppargc1b: 1.23
[3]; gene Prkaa1, MDX + AHK1, 5 weeks, tibialis anterior, untreated MDX 2.33
  Ratio of change vs. control, Prkaa1: 1.55
[3]; gene Prkag3, MDX + AHK1, 5 weeks, tibialis anterior, untreated MDX 2.52
  Ratio of change vs. control, Prkag3: 2.68
[3]; gene Rhoa, MDX + AHK1, 5 weeks, tibialis anterior, untreated MDX 2.30
  Ratio of change vs. control, Rhoa: 1.80
[3]; gene Rps6kb1, MDX + AHK1, 5 weeks, tibialis anterior, untreated MDX 1.77
  Ratio of change vs. control, Rps6kb1: 1.25
[3]; gene Tgfb1, MDX + AHK1, 5 weeks, tibialis anterior, untreated MDX 6.51
  Ratio of change vs. control, Tgfb1: 3.61
[3]; gene Tnf, MDX + AHK1, 5 weeks, tibialis anterior, untreated MDX 15.01
  Ratio of change vs. control, Tnf: 10.27
[3]; gene Tnnc1, MDX + AHK1, 5 weeks, tibialis anterior, untreated MDX 25.00
  Ratio of change vs. control, Tnnc1: 4.53
[3]; gene Tnnt1, MDX + AHK1, 5 weeks, tibialis anterior, untreated MDX 12.09
  Ratio of change vs. control, Tnnt1: 3.37
[3]; gene Utrn, MDX + AHK1, 5 weeks, tibialis anterior, untreated MDX 2.03
  Ratio of change vs. control, Utrn: 1.35
[3]; mdx mice treated 5 weeks, 84 genes analyzed, 40 in untreated mdx
  number of genes the expression of which was increased with respect to control (at least 1.75-fold): 20
[4]
  intracellular calcium levels at rest in MDX fibers: brought intracellular calcium levels back to the control levels
Mdx mice [5]
  percentage of central nuclei: significantly reduced
[6]
  dissociation of the RyR1-Calst1 complex in the presence of SIN1: partially prevented
